Experimental data as given in patent US11219663B2, “Composition containing cyclic dipeptide and sweetening agent” (SUNTORY HOLDINGS LIMITED, priority 2015, dated 2022).
Where a SMILES comes first, the peptide text is derived from it.

Tested on: NCI-H716 cells
Assay: Active GLP-1 secretion amount of NCI-H716 cells cultured for one hour with the sample (ELISA)
Assay type: cell-based, Human
Conditions: for Amount of active GLP-1, relative value (control regarded as 100), average value / Amount of Active GLP-1 (relative amount to control as 100), average value: 1 h
From the text: As cyclic dipeptides: cyclo(glycyl-tyrosine) [Cyclo(Gly-Tyr)] (CGY) and cyclo(leucyl-phenylalanine) [Cyclo(Leu-Phe)] (CLF), and chemical synthesized preparations were used. Poly-L-Lysine 96-well plates were obtained from Becton Dickinson (BD). PBS (+), an antibiotic substance, Dulbecco's Modified Eagle's Medium (DMEM) and glucose used herein were obtained from Nacalai Tesque Inc.; sucralose, acesulfame potassium and aspartame from Wako Pure Chemical Industries Ltd.; active GLP-1 ELISA kit from Merck Millipore, Fetal bovine serum (FBS) from Sigma; and Sitagliptin phosphate from SantaCruz Biotechnology. Human intestinal cell strain, NCI-H716 cells used herein were provided by ATCC.
NCI-H716 cells, which were suspended in DMEM culture medium (containing 10% FBS, 2 mM glutamine, 1% antibiotic substance), were seeded in Poly-L-Lysine 96-well plates in an amount of 100 μL for each so as to contain 0.5×10^5 cells/well and cultured in a CO2 incubator (manufactured by ESPEC CORP.) for 48 hours.
Sweetening agent solutions were prepared each by adding a sweetening agent to PBS (+). In the case of glucose, a concentration was set at 3%, sucralose at 0.6%, acesulfame potassium at 0.3%, and aspartame at 0.3%. A cyclic dipeptide was dissolved in DMSO and then added to each of sweetening agent solutions so as to obtain final concentrations shown in Table 1 and Table 2. Note that, all cell addition solutions were prepared such that DMSO (0.1%) and a 10 μM Sitagliptin phosphate were contained.
After the cells were washed once with PBS (+), a reaction solution was added to the cells. One hour later, the solution added was recovered. Thereafter, the amount of active GLP-1 in the solution recovered was measured by using the ELISA kit. Analysis was carried out using relative values to the amount of active GLP-1 (regarded as 100) in a (sample) group to which neither sweetening agent nor cyclic dipeptide were added.
NCI-H716 cells, which were suspended in DMEM culture medium (containing 10% FBS, 2 mM glutamine, 1% antibiotic substance) were seeded in Poly-L-Lysine 96-well plates in an amount of 100 μL for each so as to contain 0.5×10^5 cells/well and cultured in an CO2 incubator (manufactured by ESPEC CORP.) for 48 hours. After the cells were washed with PBS (+), a PBS (+) solution already containing 10 μM Sitagliptin phosphate was controlled such that the final concentration of stevioside or RebA was 0.01%, and the final concentration of Cyclo(Leu-Phe) was 0.02 μg/mL or 2 μg/mL. The PBS (+) solution (100 μL) was individually added to the NCI-H716 cells. One hour later, the solution added was recovered and the amount of active GLP-1 in the solution was measured by the ELISA kit. Analysis was carried out based on relative values to the amount of active GLP-1 (regarded as 100) in a (sample) group to which neither a steviol glycoside not Cyclo(Leu-Phe) were added
The experiment was carried out in accordance with Example 2. A PBS (+) solution already containing 10 μM Sitagliptin phosphate was controlled such that the final concentration of RebD was 0.01%, and the final concentration of Cyclo(Gly-Tyr) was 0.01 μg/mL or 1 μg/mL. The PBS (+) solution (100 μL) was individually added to the NCI-H716 cells.
NCI-H716 cells, which were suspended in DMEM culture medium (containing 10% FBS, 2 mM glutamine, 1% antibiotic substance), were seeded in Poly-L-Lysine 96-well plates in an amount of 100 μL for each so as to add 0.5×10^5 cells/well and cultured in an CO2 incubator (manufactured by ESPEC CORP.) for 48 hours. After the cells were washed with PBS (+), a PBS (+) solution already containing 10 μM Sitagliptin phosphate was controlled such that the final concentration of stevioside, RebA or RebB was 0.001, 0.01 or 0.1%. The PBS (+) solution (100 μL) controlled such that the final concentration of RebC or RebD was 0.001 or 0.01% was added to the cells.

[1] = Example 4, steviol glycoside alone, 0.001 to 0.1% (RebC, RebD 0.001 or 0.01%)
[2] = Table 3, steviol glycoside 0.01% alone
[3] = Table 4, steviol glycoside 0.01% alone
[4] = Table 5, final concentration 0.001%
[5] = Table 5, final concentration 0.01%
[6] = Table 5, final concentration 0.1%
[7] = steviol glycoside alone at a concentration of 0.01%

| Molecule | GLP-1 secretion-accelerating action (in words) [1] | Amount of Active GLP-1 (relative amount to control as 100), average value [4] | Amount of Active GLP-1 (relative amount to control as 100), average value [5] | Amount of Active GLP-1 (relative amount to control as 100), average value [6] | GLP-1 secretion-accelerating action (in words) [7] | further results |
| --- | --- | --- | --- | --- | --- | --- |
| CC1=CC(=O)NS(=O)(=O)O1 [Acesulfame K, acesulfame potassium] | – | – | – | – | – | Amount of active GLP-1, relative value (control regarded as 100), average value (Table 1, acesulfame K 0.3% alone): 125; Amount of active GLP-1, relative value (control regarded as 100), average value (Table 2, acesulfame K 0.3% alone): 145 |
| COC(=O)[C@H](Cc1ccccc1)NC(=O)[C@@H](N)CC(=O)O [Aspartame, aspartame] (H-Asp-Phe-OMe) | – | – | – | – | – | Amount of active GLP-1, relative value (control regarded as 100), average value (Table 1, aspartame 0.3% alone): 112; Amount of active GLP-1, relative value (control regarded as 100), average value (Table 2, aspartame 0.3% alone): 129 |
| C=C1C[C@@]23CC[C@H]4[C@@](C)(CCC[C@@]4(C)C(=O)O[C@@H]4O[C@H](CO)[C@@H](O)[C@H](O)[C@H]4O)[C@@H]2CC[C@]1(O[C@@H]1O[C@H](CO)[C@@H](O)[C@H](O[C@@H]2O[C@H](CO)[C@@H](O)[C@H](O)[C@H]2O)[C@H]1O[C@@H]1O[C@H](CO)[C@@H](O)[C@H](O)[C@H]1O)C3 [RebA, rebaudioside A] | GLP-1 secretion-accelerating action can be obtained | 92.8 | 129.3 | 150.9 | not accelerated | Amount of Active GLP-1 (relative amount to control as 100), average value [2]: 72.6; Amount of Active GLP-1 (relative amount to control as 100), average value [3]: 72.6 |
| C=C1C[C@@]23CC[C@H]4[C@@](C)(CCC[C@@]4(C)C(=O)O[C@@H]4O[C@H](CO)[C@@H](O)[C@H](O)[C@H]4O[C@@H]4O[C@H](CO)[C@@H](O)[C@H](O)[C@H]4O)[C@@H]2CC[C@]1(O[C@@H]1O[C@H](CO)[C@@H](O)[C@H](O[C@@H]2O[C@H](CO)[C@@H](O)[C@H](O)[C@H]2O)[C@H]1O[C@@H]1O[C@H](CO)[C@@H](O)[C@H](O)[C@H]1O)C3 [RebD, rebaudioside D] | GLP-1 secretion-accelerating action can be obtained | 63.1 | 170.0 | – | not accelerated | – |
| C=C1C[C@@]23CC[C@H]4[C@@](C)(CCC[C@@]4(C)C(=O)O[C@@H]4O[C@H](CO)[C@@H](O)[C@H](O)[C@H]4O)[C@@H]2CC[C@]1(O[C@@H]1O[C@H](CO)[C@@H](O)[C@H](O)[C@H]1O[C@@H]1O[C@H](CO)[C@@H](O)[C@H](O)[C@H]1O)C3 [Stevioside, stevioside] | GLP-1 secretion-accelerating action can be obtained | 104.9 | 91.3 | 160.9 | not accelerated | Amount of Active GLP-1 (relative amount to control as 100), average value [2]: 62.7; Amount of Active GLP-1 (relative amount to control as 100), average value [3]: 62.7 |
| OC[C@H]1O[C@H](O[C@]2(CCl)O[C@H](CCl)[C@@H](O)[C@@H]2O)[C@H](O)[C@@H](O)[C@H]1Cl [Sucralose, sucralose] | – | – | – | – | – | Amount of active GLP-1, relative value (control regarded as 100), average value (Table 1, sucralose 0.6% alone): 206; Amount of active GLP-1, relative value (control regarded as 100), average value (Table 2, sucralose 0.6% alone): 233 |
| cyclo(glycyl-tyrosine) [Cyclo(Gly-Tyr)] | – | – | – | – | – | Amount of Active GLP-1 (relative amount to control as 100), average value (Table 4, Cyclo(Gly-Tyr) 0.01 μg/mL alone): 65.1 |
| cyclo(leucyl-phenylalanine) [Cyclo(Leu-Phe)] | – | – | – | – | – | Amount of Active GLP-1 (relative amount to control as 100), average value (Table 3, Cyclo(Leu-Phe) 0.02 μg/mL alone): 65.1; Amount of Active GLP-1 (relative amount to control as 100), average value (Table 3, Cyclo(Leu-Phe) 2 μg/mL alone): 59.9; Amount of Active GLP-1 (relative amount to control as 100), average value (Table 4, head prints Cyclo(Leu-Phe) 1 μg/mL alone): 59.9 |
| rebaudioside B [RebB] | GLP-1 secretion-accelerating action can be obtained | 82.0 | 70.5 | 151.2 | – | – |
| rebaudioside C [RebC] | GLP-1 secretion-accelerating action was not observed | 52.8 | 55.0 | – | – | – |
